Literature values as cited in patent US20170095440A1, “METHOD OF TREATING CANINE PANCREATITIS” (CK9, LLC, priority 2014, published 2017).

Test system: serine protease
Conditions: hydrolysis products of Camostat Mesilate; cited from earlier work

Row | SMILES | Anti-proteolytic activity
1 | N=C(N)Nc1ccc(C(=O)O)cc1 [GBA, 4-guanidinobenzoic acid] | non-active
2 | N=C(N)Nc1ccc(C(=O)Oc2ccc(CC(=O)O)cc2)cc1 [GBPA, 4-(4-guanidino-benzoyloxy) phenylacetic acid] | active anti-proteolytic metabolite
